Key:
[1] = tested on: A549; assay: Cytotoxicity against human A549 cells assessed as inhibition of cell growth at 10 uM by SRB protein staining method; format: functional; conditions: read-out: GI
[2] = tested on: P388; assay: Cytotoxicity against mouse P388 cells assessed as inhibition of cell growth at 10 uM by MTT method; format: functional; conditions: read-out: GI
[3] = tested on: HL-60; assay: Cytotoxicity against human HL60 cells assessed as inhibition of cell growth at 10 uM by MTT method; format: functional; conditions: read-out: GI
[4] = tested on: A549; assay: Cytotoxicity against human A549 cells by SRB protein staining method; format: functional, cell-based
[5] = tested on: P388; assay: Cytotoxicity against mouse P388 cells by MTT method; format: functional, cell-based
[6] = tested on: HL-60; assay: Cytotoxicity against human HL60 cells by MTT method; format: functional, cell-based

SMILES	inhibition of growth at 10 µM [1] [%]	inhibition of growth at 10 µM [2] [%]	inhibition of growth at 10 µM [3] [%]	IC50 [4] [nM]	IC50 [5] [nM]	IC50 [6] [nM]
CC(=O)O[C@H]1CC(=O)O[C@@]2(C)CO[C@H]3[C@@H](OC(=O)C(O)C(C)C)[C@]4(C)[C@H](CC[C@@]5(C)[C@H](c6ccoc6)OC(=O)[C@H]6O[C@@]645)[C@]1(C)[C@@H]32 (some centres undefined)	< 50	< 50	< 50	–	–	–
C[C@@H]([C@@H]1O[C@H]1[C@H](O)C(C)(C)O)[C@@H]1CC[C@]2(C)C3=CC[C@H]4C(C)(C)C(=O)CC[C@]4(C)[C@H]3CC[C@@]12C	< 50	–	< 50	–	–	–
C[C@@H]([C@@H]1O[C@H]1[C@@H](O)C(C)(C)O)[C@@H]1CC[C@]2(C)C3=CC[C@H]4C(C)(C)C(=O)CC[C@]4(C)[C@H]3CC[C@@]12C	< 50	< 50	< 50	–	–	–
COC(=O)C[C@H](OC(C)=O)[C@]1(C)[C@H]2CC[C@@]3(C)[C@H](c4ccoc4)OC(=O)[C@H]4O[C@]43[C@]2(C)[C@H](OC(C)=O)[C@H](OC(C)=O)[C@H]1C(C)(C)O	< 50	< 50	< 50	–	–	–
C=C1[C@@H]([C@@]2(C)[C@@H](OC(C)=O)CC(=O)O[C@@](C)(COC(C)=O)[C@@H]2CC(=O)OC)[C@@H](C(=O)O)[C@H](OC(=O)C(O)C(C)C)[C@@]2(C)[C@H](c3ccoc3)C(OC(=O)C(C)CC)[C@H]3O[C@]132 (some centres undefined)	–	–	–	2100	–	–
CC(=O)O[C@H]1CC(=O)O[C@@]2(C)CO[C@H]3[C@@H](O)[C@]4(C)[C@H](CC[C@@]5(C)[C@H](c6ccoc6)OC(=O)[C@H]6O[C@@]645)[C@]1(C)[C@@H]32	< 50	< 50	< 50	–	–	–
CC(=O)O[C@@H]1C[C@H]2C(C)(C)[C@H](O)CC[C@]2(C)[C@H]2CC[C@]3(C)C(=CC[C@H]3[C@@]3(O)COC(=O)C3)[C@@]21C	< 50	< 50	< 50	–	–	–
CC1(C)C(=O)CC[C@]2(C)[C@H]3CC[C@]4(C)C(=CC[C@H]4C4=CC(=O)OC4)[C@]3(C)[C@H](OC(=O)c3ccccc3)C[C@@H]12	< 50	< 50	< 50	–	–	–
COc1cccc2c1C(=O)c1c(O)c3c(c(O)c1C2=O)C[C@@](O)(C(=O)CO)C[C@@H]3O[C@H]1C[C@H](N)[C@H](O)[C@H](C)O1 [DOXORUBICIN]	–	–	–	–	200	58
C=C(C)[C@@H]1C[C@@H](O)[C@@]2(C)C3=C[C@H](OC(C)=O)[C@@H](c4ccoc4)[C@]3(C)CC[C@@H]2[C@@]1(C)[C@@H](O)CC(=O)OC	< 50	< 50	< 50	–	–	–
C=C1[C@@H]([C@@]2(C)C=CC(=O)O[C@@](C)(COC(C)=O)[C@@H]2CC(=O)OC)[C@@H](OC=O)[C@H](OC(=O)C(O)C(C)C)[C@@]2(C)[C@H](c3ccoc3)[C@@H](OC(=O)C(OC(C)=O)C(C)C)[C@H]3O[C@]132 (some centres undefined)	< 50	< 50	< 50	–	–	–
